In general, DC50 refers to the midpoint of the concentration-degradation curve. A lower DC50 goes with degradation at low concentration. In general, inhibition refers to the share of the control response that was lost under treatment.

Data on 20 molecules can be found in patent US20260265238A1, “COMPOUNDS AND PHARMACEUTICAL COMPOSITIONS THAT DEGRADE SWI/SNF-RELATED MATRIX-ASSOCIATED ACTIN-DEPENDENT REGULATOR OF CHROMATIN SUBFAMILY A” (Plexium, Inc., priority 2023, published 2026).

Assay [1] deals with T1, SMARCA2-HiBiT HeLa cells (protein which is expressed from the SMARCA2 gene) (Homo sapiens, UniProt P51531).
T1 construct: protein which is expressed from the SMARCA2 and SMARCA4 genes; host or cells: HeLa (SMARCA2-HiBiT engineered line)
T1 sequence (P51531 whole entry): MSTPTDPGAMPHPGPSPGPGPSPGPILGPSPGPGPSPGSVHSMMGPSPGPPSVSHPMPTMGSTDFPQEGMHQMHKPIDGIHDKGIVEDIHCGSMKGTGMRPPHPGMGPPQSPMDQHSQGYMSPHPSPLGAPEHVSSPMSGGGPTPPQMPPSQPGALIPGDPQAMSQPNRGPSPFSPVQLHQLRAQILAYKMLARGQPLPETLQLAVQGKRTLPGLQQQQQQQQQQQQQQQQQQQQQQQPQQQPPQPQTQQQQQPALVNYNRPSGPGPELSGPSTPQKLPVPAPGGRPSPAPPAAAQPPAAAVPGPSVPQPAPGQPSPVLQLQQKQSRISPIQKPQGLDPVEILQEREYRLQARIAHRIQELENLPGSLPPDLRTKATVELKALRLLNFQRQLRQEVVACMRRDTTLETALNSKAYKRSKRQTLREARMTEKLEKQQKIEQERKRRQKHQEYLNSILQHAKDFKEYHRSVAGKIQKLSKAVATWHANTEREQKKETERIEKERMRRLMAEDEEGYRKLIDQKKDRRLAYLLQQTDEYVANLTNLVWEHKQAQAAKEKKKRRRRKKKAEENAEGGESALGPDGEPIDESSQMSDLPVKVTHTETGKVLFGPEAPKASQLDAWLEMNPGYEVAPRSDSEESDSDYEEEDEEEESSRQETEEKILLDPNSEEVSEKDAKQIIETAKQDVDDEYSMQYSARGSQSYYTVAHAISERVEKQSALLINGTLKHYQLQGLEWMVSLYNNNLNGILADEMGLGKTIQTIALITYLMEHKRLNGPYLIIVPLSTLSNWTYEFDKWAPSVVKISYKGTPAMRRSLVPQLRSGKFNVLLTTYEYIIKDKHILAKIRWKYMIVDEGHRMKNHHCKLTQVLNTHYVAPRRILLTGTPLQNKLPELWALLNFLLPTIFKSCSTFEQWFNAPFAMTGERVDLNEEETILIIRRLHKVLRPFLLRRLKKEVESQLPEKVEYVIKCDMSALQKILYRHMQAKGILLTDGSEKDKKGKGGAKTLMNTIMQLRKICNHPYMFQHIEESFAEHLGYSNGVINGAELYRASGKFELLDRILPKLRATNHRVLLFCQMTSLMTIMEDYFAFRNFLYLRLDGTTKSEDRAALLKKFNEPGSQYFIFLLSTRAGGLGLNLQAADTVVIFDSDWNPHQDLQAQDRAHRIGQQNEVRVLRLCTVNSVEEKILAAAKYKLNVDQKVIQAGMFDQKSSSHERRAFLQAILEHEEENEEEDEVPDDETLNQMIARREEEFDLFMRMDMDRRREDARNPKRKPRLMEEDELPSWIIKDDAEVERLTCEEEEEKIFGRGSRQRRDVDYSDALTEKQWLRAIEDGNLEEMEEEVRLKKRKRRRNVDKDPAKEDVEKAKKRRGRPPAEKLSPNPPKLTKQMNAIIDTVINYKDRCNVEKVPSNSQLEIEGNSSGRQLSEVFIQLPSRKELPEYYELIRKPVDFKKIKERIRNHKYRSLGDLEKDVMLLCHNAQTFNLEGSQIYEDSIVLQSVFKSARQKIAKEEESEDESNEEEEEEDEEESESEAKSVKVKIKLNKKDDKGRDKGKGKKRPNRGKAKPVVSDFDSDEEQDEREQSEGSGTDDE
Kind of assay: SMARCA2 degradation assay (HiBiT-fusion HeLa cell line, 24 h, luminescence). It is filed as cell-based. Summed up: (§1)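 In this 24-hour cellular degradation readout, HiBiT-tagged HeLa lines received compound at up to typically 10 μM down to 300 pM in 10 points. After lysis with LgBiT and substrate, luminescence signals were used to build dose-response curves for DC50.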

For assay [2], the target named is T2, SMARCA4-HiBiT HeLa cells (protein which is expressed from the SMARCA4 gene) (Homo sapiens, UniProt P51532).
T2 construct: protein which is expressed from the SMARCA2 and SMARCA4 genes; host or cells: HeLa (SMARCA4-HiBiT engineered line)
T2 sequence (P51532 whole entry): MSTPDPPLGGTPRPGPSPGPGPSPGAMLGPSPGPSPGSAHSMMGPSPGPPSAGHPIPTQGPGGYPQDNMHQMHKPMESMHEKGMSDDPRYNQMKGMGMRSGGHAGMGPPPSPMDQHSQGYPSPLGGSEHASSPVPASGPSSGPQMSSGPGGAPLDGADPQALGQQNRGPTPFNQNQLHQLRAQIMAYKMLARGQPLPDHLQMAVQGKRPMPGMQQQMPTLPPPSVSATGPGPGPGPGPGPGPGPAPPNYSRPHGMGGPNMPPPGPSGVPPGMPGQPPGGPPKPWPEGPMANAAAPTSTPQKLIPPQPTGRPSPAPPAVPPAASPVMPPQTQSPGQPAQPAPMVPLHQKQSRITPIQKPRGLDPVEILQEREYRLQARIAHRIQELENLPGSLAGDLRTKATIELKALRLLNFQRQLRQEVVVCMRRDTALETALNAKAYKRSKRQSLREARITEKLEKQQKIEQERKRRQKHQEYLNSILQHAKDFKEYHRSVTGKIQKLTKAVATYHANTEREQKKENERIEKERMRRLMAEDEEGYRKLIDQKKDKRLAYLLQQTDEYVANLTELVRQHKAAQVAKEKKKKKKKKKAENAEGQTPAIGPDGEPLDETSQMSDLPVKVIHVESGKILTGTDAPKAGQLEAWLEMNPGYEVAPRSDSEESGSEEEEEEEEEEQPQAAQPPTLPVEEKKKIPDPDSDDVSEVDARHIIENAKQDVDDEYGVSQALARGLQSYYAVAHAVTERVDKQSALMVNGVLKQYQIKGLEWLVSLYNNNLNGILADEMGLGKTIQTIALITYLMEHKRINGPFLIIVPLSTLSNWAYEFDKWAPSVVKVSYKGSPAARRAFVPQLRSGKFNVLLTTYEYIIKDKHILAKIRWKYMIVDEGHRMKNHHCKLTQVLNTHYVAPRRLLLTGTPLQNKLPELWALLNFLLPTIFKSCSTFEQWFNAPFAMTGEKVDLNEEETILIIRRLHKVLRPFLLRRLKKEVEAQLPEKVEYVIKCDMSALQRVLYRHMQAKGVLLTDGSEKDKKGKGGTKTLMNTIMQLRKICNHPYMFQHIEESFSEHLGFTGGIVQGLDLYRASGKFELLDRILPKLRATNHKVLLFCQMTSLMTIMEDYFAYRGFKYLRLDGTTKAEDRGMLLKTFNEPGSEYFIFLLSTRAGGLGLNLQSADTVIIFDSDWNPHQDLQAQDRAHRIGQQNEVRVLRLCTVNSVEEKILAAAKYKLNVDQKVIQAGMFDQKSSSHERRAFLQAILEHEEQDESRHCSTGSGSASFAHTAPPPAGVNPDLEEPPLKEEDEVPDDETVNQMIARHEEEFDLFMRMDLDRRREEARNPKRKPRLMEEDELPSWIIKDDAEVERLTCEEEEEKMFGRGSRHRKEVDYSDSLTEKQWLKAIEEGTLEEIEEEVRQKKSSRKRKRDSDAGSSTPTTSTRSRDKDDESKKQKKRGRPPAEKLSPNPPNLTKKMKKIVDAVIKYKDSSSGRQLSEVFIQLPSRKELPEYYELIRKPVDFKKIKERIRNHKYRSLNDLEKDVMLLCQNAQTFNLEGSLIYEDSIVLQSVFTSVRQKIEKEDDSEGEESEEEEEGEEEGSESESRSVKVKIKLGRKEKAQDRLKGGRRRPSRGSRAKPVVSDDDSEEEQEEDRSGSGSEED
Kind of assay: SMARCA4 degradation assay (HiBiT-fusion HeLa cell line, 24 h, luminescence). The assay is classed as cell-based. Summed up: as §1
(In general: With HiBiT, luminescence reflects the tagged protein that the partner subunit can reach.)

Bounds are passed on as bounds.

For the molecule `CC(C#Cc1ncc(F)c(N2CCN(c3cc(-c4ccccc4O)nnc3N)CC[C@H]2C)n1)N(C)C` (stereo partly shown) [Compound P-208], the DC50 in assay [1] and in assay [2] was 50 to 500 nM throughout. For the same molecule, in assay [1] (@ 1 μM), the “SMARCA2 % Degradation @ 1 μM” value is “++ (++=30-70%)”. For the same molecule, the inhibition at 1 µM in assay [2] (@ 1 μM) is < 30%.

Consider `C[C@@H]1CCN(c2cc(-c3ccccc3O)nnc2N)CCN1c1ccnc(C#CCN(C)CCF)n1` [Compound P-154, o-{5-[(R)-4-(2-{3-[(2-fluoroethyl)-N-methylamino]-1-propynyl}-4-pyrimidinyl)-5-methyl-1,4-diazepan-1-yl]-6-amino-3-pyridaziny1} phenol], for which the DC50 in assay [1] and in assay [2] was 50 to 500 nM throughout. For the same molecule, in assay [1] (@ 1 μM), the “SMARCA2 % Degradation @ 1 μM” value is “++ (++=30-70%)”. The inhibition at 1 µM in assay [2] (@ 1 μM) is < 30%.

As to `C[C@@H]1CCN(c2cc(-c3ccccc3O)nnc2N)CCN1c1ccnc(C#CCN2CC3CC2C3)c1` [Compound P-392, 0-{5-[(R)-4-(2-{3-(2-azabicyclo[2.1.1]hex-2-yl)-1-propynyl}-4-pyridyl)-5-methyl-1,4-diazepan-1-yl]-6-amino-3-pyridazinyl}phenol], the DC50 in assay [1] and in assay [2] was 50 to 500 nM each time. Also, the “SMARCA2 % Degradation @ 1 μM” value in assay [1] (1 μM) is recorded as “+++ (+++=>70%)”. Besides, the inhibition at 1 µM in assay [2] (1 μM) is > 70%.

Turning to `Nc1nnc(-c2ccccc2O)cc1N1CCCN(c2ccnc(C#CCN3CCn4c(nnc4C(F)(F)F)C3)n2)CC1` [Compound P-363, 0-{6-amino-5-[4-(2-{3-[3-(trifluoromethyl)-4,5,6,7-tetrahydro-1,2,3a,6-tetraaza-6-indenyl]-1-propynyl}-4-pyrimidinyl)-1,4-diazepan-1-yl]-3-pyridaziny1} phenol], the DC50 in assay [1] and in assay [2] was 500 to 5000 nM in each case. For the same molecule, the “SMARCA2 % Degradation @ 1 μM” value in assay [1] (@ 1 μM) is “++ (++=30-70%)”. In assay [2] (@ 1 μM), this molecule gave an inhibition at 1 µM of 30 to 70%.

Take `CN(C)CC#Cc1nccc(N2C3CCC2CN(c2cc(-c4ccccc4O)nnc2N)C3)n1` [Compound P-134, 2-(6-amino-5-(8-(2-(3-(dimethylamino)prop-1-yn-1-yl)pyrimidin-4-yl)-3,8-diazabicyclo[3.2.1]octan-3-yl)pyridazin-3-yl)phenol]: the 50% degradation concentration (DC50) is 50 to 500 nM in assay [1] and < 50 nM in assay [2]. In addition, the “SMARCA2 % Degradation @ 1 μM” value in assay [1] (@ 1 μM) is “++ (++=30-70%)”. In addition, the inhibition at 1 µM in assay [2] (@ 1 μM) was 30 to 70%.

Take `N#Cc1ccc(N2C3CCC2CN(c2cnnc(-c4ccccc4O)c2)C3)nc1C#CCN1CC[C@H](F)C1` [Compound P-402, 2-{3-[(S)-3-fluoro-1-pyrrolidinyl]-1-propynyl}-6-{3-[6-(o-hydroxyphenyl)-4-pyridazinyl]-3,8-diazabicyclo[3.2.1]oct-8-yl}nicotinonitrile]: the DC50 in assay [1] and in assay [2] was 50 to 500 nM in each case. Moreover, in assay [1] (1 μM), the “SMARCA2 % Degradation @ 1 μM” value is “++ (++=30-70%)”. In addition, the inhibition at 1 µM in assay [2] (1 μM) is < 30%.

Regarding `C[C@@H]1CCN(c2cc(-c3ccccc3O)nnc2N)CCN1c1ccc(C(F)(F)F)c(C#CCN(C)C)n1` [Compound P-395, 0-{5-[(R)-4-{6-[3-(dimethylamino)-1-propynyl]-5-(trifluoromcthyl)-2-pyridyl}-5-methyl-1,4-diazepan-1-yl]-6-amino-3-pyridazinyl}phenol], the half-maximal degradation concentration (DC50) in assay [1] is 500 to 5000 nM; in assay [2], > 5000 nM.

As to `Nc1nnc(-c2ccccc2O)cc1N1CCCN(c2ccnc(C#CCN3CCCC3)n2)CC1` [Compound P-366, 0-[6-amino-5-(4-{2-[3-(1-pyrrolidinyl)-1-propynyl]-4-pyrimidinyl}-1,4-diazepan-1-yl)-3-pyridazinyl]phenol], the half-maximal degradation concentration (DC50) in assay [1] and in assay [2] was 50 to 500 nM throughout. In addition, in assay [1] (@ 1 μM), the “SMARCA2 % Degradation @ 1 μM” value is on record as “+++ (+++=>70%)”. Also, the inhibition at 1 µM in assay [2] (@ 1 μM) was > 70%.

As to `Nc1nnc(-c2ccccc2O)cc1N1CC2CN(c3ccnc(C#CCNC(=O)c4cc5ncccn5n4)n3)C2C1` (stereo not shown) [Compound P-43, N-(3-(4-(3-(3-amino-6-(2-hydroxyphenyl)pyridazin-4-yl)-3,6-diazabicyclo[3.2.0]heptan-6-yl)pyrimidin-2-yl)prop-2-yn-1-yl)pyrazolo[1,5-a]pyrimidine-2-carboxamide], the values for the 50% degradation concentration (DC50) in assay [1] and in assay [2] were 500 to 5000 nM and 50 to 500 nM, respectively. Also, the “SMARCA2 % Degradation @ 1 μM” value in assay [1] (@ 1 μM) is on record as “++ (++=30-70%)”. Besides, in assay [2] (@ 1 μM), the inhibition at 1 µM is 30 to 70%.

Regarding `NCC#Cc1nccc(N2C3CC2CN(c2cc(-c4ccccc4O)nnc2N)C3)n1` [Compound P-91, 2-(6-amino-5-(6-(2-(3-aminoprop-1-yn-1-yl)pyrimidin-4-yl)-3,6-diazabicyclo[3.1.1]heptan-3-yl)pyridazin-3-yl)phenol], the half-maximal degradation concentration (DC50) in assay [1] and in assay [2] was 500 to 5000 nM each time. Moreover, in assay [1] (@ 1 μM), the “SMARCA2 % Degradation @ 1 μM” value is reported as “+ (+=<30%)”. Besides, the inhibition at 1 µM in assay [2] (@ 1 μM) is < 30%.

With `C[C@@H]1CCN(c2cc(-c3ccccc3O)nnc2N)CCN1c1ccnc(C#CCN(C)C)n1` [Compound P-345, 0-{5-[(R)-4-{2-[3-(dimethylamino)-1-propynyl]-4-pyrimidinyl}-5-methyl-1,4-diazepan-1-y1]-6-amino-3-pyridazinyl}phenol], the DC50 in assay [1] and in assay [2] was < 50 nM each time. The “SMARCA2 % Degradation @ 1 μM” value in assay [1] (@ 1 μM) was “++ (++=30-70%)”. The molecule further displayed an inhibition at 1 µM in assay [2] (@ 1 μM) of 30 to 70%.

As to `C[C@H]1CN(c2ccnc(C#CCn3ccnc3)n2)CCN1c1cc(-c2ccccc2O)nnc1N` [Compound P-293, 0-{5-[(S)-4-{2-[3-(1-imidazolyl)-1-propynyl]-4-pyrimidinyl}-2-methyl-1-piperaziny1]-6-amino-3-pyridazinyl}phenol], the DC50 is 50 to 500 nM in assay [1] and < 50 nM in assay [2]. Besides, the “SMARCA2 % Degradation @ 1 μM” value in assay [1] (@ 1 μM) was “++ (++=30-70%)”. In addition, the inhibition at 1 µM in assay [2] (@ 1 μM) was < 30%.

Take `C[C@@H]1CCN(c2cc(-c3ccccc3O)nnc2N)CCN1c1ccc(C#N)c(C#CCN(C)C)n1` [Compound P-423, 6-{(R)-4-[3-amino-6-(0-hydroxyphenyl)-4-pyridaziny1]-7-methyl-1,4-diazepan-1-yl}-2-[3-(dimethylamino)-1-propynyl]nicotinonitrile]: the DC50 in assay [1] and in assay [2] was < 50 nM throughout. The “SMARCA2 % Degradation @ 1 μM” value in assay [1] (1 μM) was “++ (++=30-70%)”. The molecule also displayed an inhibition at 1 µM in assay [2] (1 μM) of 30 to 70%.

Take `CC[C@@H](C)NCC#Cc1nccc(N2CCCN(c3cc(-c4ccccc4O)nnc3N)CC2)n1` [Compound P-274, 0-{5-[4-(2-{3-[(R)-1-methylpropylamino]-1-propynyl}-4-pyrimidinyl)-1,4-diazepan-1-yl]-6-amino-3-pyridazinyl}phenol]: the 50% degradation concentration (DC50) in assay [1] and in assay [2] was 50 to 500 nM throughout. Besides, the “SMARCA2 % Degradation @ 1 μM” value in assay [1] (@ 1 μM) was “+++ (+++=>70%)”. The inhibition at 1 µM in assay [2] (@ 1 μM) was in the range of 30 to 70%.

For `C[C@@H]1CN(c2ccnc(C#CCNC(=O)c3cc4ncccn4n3)n2)C[C@@H](C)N1c1cc(-c2ccccc2O)nnc1N` [Compound P-82, N-(3-(4-((3R,5R)-4-(3-amino-6-(2-hydroxyphenyl)pyridazin-4-yl)-3,5-dimethylpiperazin-1-yl)pyrimidin-2-yl)prop-2-yn-1-yl)pyrazolo[1,5-a]pyrimidine-2-carboxamide], the DC50 in assay [1] and in assay [2] was 500 to 5000 nM each time. For the same molecule, in assay [1] (@ 1 μM), the “SMARCA2 % Degradation @ 1 μM” value was “+ (+=<30%)”. Also, the inhibition at 1 µM in assay [2] (@ 1 μM) was < 30%.

Take `Nc1nnc(-c2ccccc2O)cc1N1C2CCC1CN(c1ccnc(C#CCn3cncn3)n1)C2` [Compound P-283, 0-[6-amino-5-(3-{2-[3-(1H-1,2,4-triazol-1-yl)-1-propynyl]-4-pyrimidinyl}-3,8-diazabicyclo[3.2.1]oct-8-yl)-3-pyridazinyl]phenol]: the DC50 in assay [1] and in assay [2] was 50 to 500 nM throughout. The “SMARCA2 % Degradation @ 1 μM” value in assay [1] (@ 1 μM) is recorded as “++ (++=30-70%)”. Besides, the inhibition at 1 µM in assay [2] (@ 1 μM) was < 30%.

Consider `CN(C)CC#Cc1nccc(N2C3CCC2CN(c2cc(-c4ccccc4O)nnc2N)CC3)n1` (stereo not shown) [Compound P-157, o-[6-amino-5-(9-{2-[3-(dimethylamino)-1-propynyl]-4-pyrimidinyl}-3,9-diazabicyclo[4.2.1]non-3-yl)-3-pyridazinyl]phenol], for which the DC50 is < 50 nM in assay [1] and 50 to 500 nM in assay [2]. The “SMARCA2 % Degradation @ 1 μM” value in assay [1] (@ 1 μM) is on record as “++ (++=30-70%)”. Moreover, the inhibition at 1 µM in assay [2] (@ 1 μM) lay in the range of 30 to 70%.

Regarding `CC(C)(C)OC(=O)NCC#Cc1nccc(N2CCC3CCC(C2)N3c2cc(-c3ccccc3O)nnc2N)n1` (stereo not shown) [Compound P-267, 3-(4-{9-[3-amino-6-(o-hydroxyphenyl)-4-pyridaziny1]-3,9-diazabicyclo[4.2.1]non-3-yl}-2-pyrimidinyl)-2-propynylamino-tert-butylformylate], the DC50 in assay [1] and in assay [2] was 50 to 500 nM in each case. In addition, in assay [1] (@ 1 μM), the “SMARCA2 % Degradation @ 1 μM” value was “+++ (+++=>70%)”. Further, the inhibition at 1 µM in assay [2] (@ 1 μM) lay within 30 to 70%.

As for `COCC#Cc1nc(N2CCN(c3cc(-c4ccccc4O)nnc3N)CC[C@H]2C)ccc1C#N` [Compound P-400, 6-{(R)-4-[3-amino-6-(o-hydroxyphenyl)-4-pyridazinyl]-7-methyl-1,4-diazepan-1-yl}-2-(3-methoxy-1-propynyl)nicotinonitrile], the results for the DC50 in assay [1] and in assay [2] were 500 to 5000 nM and > 5000 nM, respectively.

In the case of `Cc1nn2ccn(CC#Cc3nccc(N4C[C@H]5C[C@@H]4CN5c4cc(-c5ccccc5O)nnc4N)n3)c(=O)c2c1C` [Compound P-286, 5-[3-(4-{(1R,4R)-5-[3-amino-6-(0-hydroxyphenyl)-4-pyridazinyl]-2,5-diazabicyclo[2.2.1]hept-2-y1}-2-pyrimidinyl)-2-propynyl]-2,3-dimethyl-1,5,7a-triaza-4(5H)-indenone], the DC50 in assay [1] and in assay [2] was 50 to 500 nM each time. Also, the “SMARCA2 % Degradation @ 1 μM” value in assay [1] (@ 1 μM) is “++ (++=30-70%)”. In assay [2] (@ 1 μM), this molecule displayed an inhibition at 1 µM of 30 to 70%.
